Experimental data as given in patent US20250235543A1, “MODIFIED PROTEINS AND PROTEIN DEGRADERS” (Cullgen (Shanghai), Inc., priority 2021, published 2025).

How the values were obtained:
NCI-H522 = assay: Cell viability assay, NCI-H522; format: cell-based; conditions: Homo sapiens, 72 h; NCI-H522, NSCLC, 3 days; read-out: Cellular Anti-proliferation activity (IC50)
Experimental: (§1) Cells were treated with CDK4/6 inhibitors palbociclib, ribociclib, or abemaciclib, or heterobifunctional compounds CPD-002 or CPD-031 following a 9-point serial dilution for 3 days.
(§2) Cells were seeded at a density of 2,000-5,000 cells per well in 96-well assay plates and treated with test compounds following a 10-point serial dilution for 3-6 days. Cell viability was determined using the CellTiter-Lumi assay kit according to the manufacturer's instructions. The dose-response curves were determined and IC50 values were calculated using the GraphPad Prism software following a nonlinear regression (least squares fit) method. Data presented was mean±standard deviation (SD) unless otherwise indicated.

[1] = test system: cyclin D1, cyclin D2, cyclin D3; assay: Immunoblot of cyclin D protein levels in Calu-1 (and BT-549) cells; format: cell-based; conditions: for cyclin D downregulation effect after pre-treatment with MG-132, MLN4924 or TAK-243: proteasome, cullin E3 ligase or UAE inhibitor pre-treatment; for DC50 / reduction of cyclin D1, cyclin D2, and cyclin D3 protein levels: immunoblot, dose range; for DC50: 16 hours treatment; for reduction of cyclin D1, cyclin D2, and cyclin D3 protein levels: Calu-1 / BT-549 cells, 16 hours
Experimental: Specific exemplary heterobifunctional compounds were characterized in Calu-1, BT-549 and other cells. Cells that express cyclin D1-3 and CDK4/6 proteins were treated with heterobifunctional compounds disclosed herein at indicated concentrations for 16 hours. Cells were collected, lysed and subject to immunoblotting using an antibody specific to cyclin D1, cyclin D2, cyclin D3, CDK4, CDK6 or phosphorylated R^b proteins. Tubulin or GAPDH was used as the loading control. DMSO treatment was used as the negative control.
In a time-course study, Calu-1 cells were treated with 500 nM CPD-002, or 100 nM CPD-031 for indicated period of time prior to immunoblotting (FIG. 4A-4B).
(§3) The heterobifunctional compound-mediated degradation was dependent on the ubiquitin-proteasome system and cullin E3 ligase. […] In addition, DDB1 E3 ligase was critical for the degrader-induced cyclin D downregulation. Depletion of DDB1 using CRISPR-Cas9 technology attenuated the cyclin D degradation induced by CPD-031 (FIG. 5C).
To verify that heterobifunctional compound-mediated degradation is dependent on the binding to CDK4-cyclin D complex, we designed three negative control compounds, CPD-042, CPD-049 and CPD-380, which are derived from CPD-002 CPD-031 and CPD-343, respectively. These three control compounds bear the same DDB1 ligand and linker as their corresponding active heterobifunctional compounds but with modified warheads to impair the binding of the control compounds to CDK4. […] However, the binding to CDK4 is not sufficient for cyclin D degradation. Two cereblon (CRBN)-recruiting reference heterobifunctional compounds, CP-10 (Su, J Med Chem, 2019; CAS No.: 2366268-80-4) and BSJ-03-123 (Brand, Cell Chem Biol, 2019; CAS No.: 2361493-16-3) were analyzed in Calu-1 cells.

cyclin D1 [2] = assay: Immunoblot of cyclin D1 in parental or DDB1 knockout Hs578T cells; format: cell-based; conditions: parental vs DDB1 knockout Hs578T cells, 4 hours
Experimental: FIG. 5 show immunoblots of cyclin D1, cyclin D2 and cyclin D3 proteins expressed by Calu-1 cells after treatment with heterobifunctional compounds CPD-002 and CPD-004 (A), or CPD-031 (B) in the presence or absence of MLN4924 (MLN), MG-132 (MG), or TAK-243 (TAK), and immunoblots of cyclin D1 proteins expressed in parental or DDB1 knockout Hs578T cells after treatment with heterobifunctional compound CPD-031 at indicated concentrations for 4 hours (C).
as §3

MDA-MB-157 = assay: Cell viability assay, MDA-MB-157; format: cell-based; conditions: Homo sapiens, 72 h; MDA-MB-157, TNBC, 3 days; read-out: Cellular Anti-proliferation activity (IC50)
Experimental: as §1, §2

cyclin D1 [3] = assay: Cyclin D1 percentage degradation in Calu-1 cells (immunoblotting); format: cell-based; conditions: 200 nM, 16 hours
How it was run: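 Cells were rinsed once in cold PBS and lysed in cold RIPA buffer containing protease and phosphatase inhibitors, with gentle agitation at 4° C. for 30 min. Lysates were spun at 13,000 rpm for 10 min at 4° C., protein was measured by BCA, and samples were boiled in Laemmli buffer at 99° C. for 5 min before SDS-PAGE immunoblotting.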

[4] = test system: Calu-1, NCI-H522, BT-549, Hs578T, MIA PaCa-2 or other cells; assay: Inhibition of cancer cell growth, 9-point serial dilution in 96-well plates; format: cell-based; conditions: 3 d treatment
BT-549 = assay: Cell viability assay, BT-549; format: cell-based; conditions: Homo sapiens, 72 h; BT-549, TNBC, 3 days; read-out: Cellular Anti-proliferation activity (IC50)
Experimental: as §1, §2

KURAMOCHI = assay: Cell viability assay, KURAMOCHI; format: cell-based; conditions: 72 h, OC, 3 days, read-out: Cellular Anti-proliferation activity (IC50)
Experimental: as §1, §2

Hs578T = assay: Cell viability assay, Hs578T; format: cell-based; conditions: Homo sapiens, Hs-578T, 72 h, TNBC, 3 days, read-out: Cellular Anti-proliferation activity (IC50)
Experimental: as §1, §2

DDB1 = biological target: T1, DDB1 (Homo sapiens, UniProt Q16531, D705G/DEL396-460/DEL463-701/I704S/T703N); assay: Surface plasmon resonance (SPR) binding of heterobifunctional compounds to DDB1; conditions: purified DDB1ΔBPB immobilized on CM5 chip, multi-cycle kinetic format, steady state model, read-out: binding affinities (Kd) to DDB1
T1 construct: His6 (N, cleaved yes); TEV protease cleavage site (N, cleaved yes); made in house; host or cells: SF9 insect cells, Bac-to-Bac baculovirus, pFastBacHTB vector
Experimental: To determine whether the addition of linkers and target binders to the DDB1 ligands affected the binding to DDB1 E3 ligase, the binding affinities of heterobifunctional compounds to DDB1 was evaluated using a surface plasmon resonance (SPR) assay. Purified DDB1ΔBPB proteins were immobilized on a CM5 sensor chip and a dose range of compound solutions were injected in multi-cycle kinetic format. Data was fit to steady state model and gave equivalent dissociation constants (Kd).

[5] = test system: Rb phosphorylation, cleaved caspase-3; assay: Immunoblotting of downstream Rb phosphorylation and cleaved caspase-3 in Calu-1 or BT-549 cells; format: cell-based; conditions: 16 hours
Experimental: Calu-1 (FIG. 2A) or BT-549 (FIG. 2B) cells were treated with CPD-002, CPD-004, or palbociclib at indicated concentrations for 16 hours.
Cultured cells were washed with cold PBS once and lysed in cold RIPA buffer supplemented with protease inhibitors and phosphatase inhibitors (Beyotime Biotechnology). The solutions were then incubated at 4° C. for 30 min with gentle agitation to fully lysed cells. Cell lysates were centrifuged at 13,000 rpm for 10 min at 4° C. and pellets were discarded. Total protein concentrations in the lysates were determined following BCA assays (Beyotime Biotechnology). Cell lysates were mixed with Laemmli loading buffer and heated at 99° C. for 5 min. Proteins were resolved on SDS-PAGE and visualized using Western ECL Substrate kits on a ChemiDoc MP Imaging system (Bio-Rad). Protein bands were quantitated using the Image Lab software provided by Bio-Rad.

[6] = time-course, Calu-1 cells, 500 nM CPD-002

T1 sequence (Q16531 other isoform, or with tags, fused parts or gaps DEL396-460/DEL463-701/T703N/I704S/D705G): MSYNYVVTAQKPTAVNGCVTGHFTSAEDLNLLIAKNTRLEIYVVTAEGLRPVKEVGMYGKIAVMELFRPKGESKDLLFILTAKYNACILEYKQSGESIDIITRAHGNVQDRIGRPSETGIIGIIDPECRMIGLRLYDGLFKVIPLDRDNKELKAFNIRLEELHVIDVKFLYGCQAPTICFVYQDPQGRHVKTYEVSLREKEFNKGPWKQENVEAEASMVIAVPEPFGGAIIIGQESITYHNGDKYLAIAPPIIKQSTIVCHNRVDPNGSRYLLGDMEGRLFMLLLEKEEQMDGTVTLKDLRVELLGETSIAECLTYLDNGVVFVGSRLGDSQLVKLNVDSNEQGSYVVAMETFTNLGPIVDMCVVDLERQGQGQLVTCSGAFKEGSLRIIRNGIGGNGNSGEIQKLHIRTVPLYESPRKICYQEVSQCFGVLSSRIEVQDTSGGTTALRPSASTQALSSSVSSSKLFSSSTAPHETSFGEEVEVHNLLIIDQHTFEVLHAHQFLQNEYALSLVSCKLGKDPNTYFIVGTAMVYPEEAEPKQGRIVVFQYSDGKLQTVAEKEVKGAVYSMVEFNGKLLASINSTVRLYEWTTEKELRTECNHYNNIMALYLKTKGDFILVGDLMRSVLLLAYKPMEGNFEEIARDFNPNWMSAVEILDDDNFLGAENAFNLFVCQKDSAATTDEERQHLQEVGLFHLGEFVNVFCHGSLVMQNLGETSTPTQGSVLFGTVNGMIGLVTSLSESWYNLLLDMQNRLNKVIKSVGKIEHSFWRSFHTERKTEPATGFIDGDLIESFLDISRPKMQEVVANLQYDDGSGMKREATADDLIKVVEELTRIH

Row | IC50 (NCI-H522) [nM] | DC50 [1] [nM] | IC50 (MDA-MB-157) [nM] | IC50 (BT-549) [nM] | Kd (DDB1) [nM] | Structure (SMILES) | cyclin D3 versus cyclin D1 and D2 degradation, time-course ([1]; Calu-1 cells, 100 nM CPD-031) | cyclin D downregulation effect after pre-treatment with MG-132, MLN4924 or TAK-243 ([1]; Calu-1 cells) | reduction of cyclin D1, cyclin D2, and cyclin D3 protein levels [1] | cyclin D degradation after depletion of DDB1 (CRISPR-Cas9) (cyclin D1 [2]) | CyclinD1 Degradation (200 nM) (cyclin D1 [3]) | potency at inhibition of multiple cancer cell lines versus CDK4/6 inhibitors [4] | IC50 (KURAMOCHI) [nM] | IC50 (Hs578T) [nM] | time to complete degradation of cyclin D proteins [1, 6] [h] | time to significant degradation of cyclin D proteins [1, 6] [h] | downstream Rb phosphorylation and cleaved caspase-3 [5]
1 | 155 | < 20 | 28 | 110 | 5700 | CC(=O)c1c(C)c2cnc(Nc3ccc(N4CCN(CC(=O)NCCOCCOCCOCCOCCOCCNc5ccc(C(=O)Nc6nc(C)c(C)s6)c(C)c5)CC4)cn3)nc2n(C2CCCC2)c1=O [CPD-031, 4-((1-(4-(6-((6-Acetyl-8-cyclopentyl-5-methyl-7-oxo-7,8-dihydropyrido[2,3-d]pyrimidin-2-yl)amino)pyridin-3-yl)piperazin-1-yl)-2-oxo-6,9,12,15,18-pentaoxa-3-azaicosan-20-yl)amino)-N-(4,5-dimethylthiazol-2-yl)-2-methylbenzamide] | slower cyclin D3 degradation compared to cyclin D1 and D2 degradation | totally diminished | particularly effective | attenuated | A (protein percentage degradation >=80%) | significantly more potent than palbociclib, ribociclib, and abemaciclib | 190 | 38 | – | – | –
2 | 638 | < 50 | 151 | 690 | – | CC(=O)c1c(C)c2cnc(Nc3ccc(N4CCN(CC(=O)NCCOCCOCCOCCOCCOCCNc5ccc(C(=O)Nc6ncc(C)s6)c(C)c5)CC4)cn3)nc2n(C2CCCC2)c1=O [CPD-002, 4-((1-(4-(6-((6-Acetyl-8-cyclopentyl-5-methyl-7-oxo-7,8-dihydropyrido[2,3-d]pyrimidin-2-yl)amino)pyridin-3-yl)piperazin-1-yl)-2-oxo-6,9,12,15,18-pentaoxa-3-azaicosan-20-yl)amino)-2-methyl-N-(5-methylthiazol-2-yl)benzamide] | – | totally diminished | particularly effective | – | A (protein percentage degradation >=80%) | significantly more potent than palbociclib, ribociclib, and abemaciclib | 920 | 215 | ≤ 2 | ≤ 0.5 | inhibited downstream Rb phosphorylation and induced cleaved caspase-3 in a concentration-dependent manner
